Each structure is given as a SMILES string. Where only a bound is given, the exact number is not on record here.

In data set [1] the test system is mouse. The note with it: Chronic toxicity; b6c3f1; Oral; Gavage/Intubation; dose end: 2 year; group: systemic; systemic / pathology microscopic / kidney / necrosis + systemic / pathology microscopic / kidney / regeneration + systemic / pathology ….
Data set [2] has as its system rat. To be noted: Subchronic oral toxicity in rodents, fischer, Gavage/Intubation, dose end: 13 week, group: systemic.
Data set [3] deals with mouse. The note with it: Subchronic oral toxicity in rodents, b6c3f1, Gavage/Intubation, dose end: 13 week, group: systemic.
Data set [4] has as its system rat. The note with it: Chronic toxicity, fischer, Oral, Gavage/Intubation, dose end: 2 year, group: systemic.
The test system of data set [5] is rat. To be noted: Sub-acute dermal toxicity, sprague dawley, Topical, dose end: 2 week, group: systemic, systemic / in life observation / body weight / body weight gain + systemic / in life observation / food consumption / food consumption.
The test system of data set [6] is rat. To be noted: Subchronic dermal toxicity, sprague dawley, Topical, dose end: 91 day, group: systemic, systemic / in life observation / clinical signs / skin ulceration.
Data set [7] deals with rat. The note with it: Carcinogenicity; fischer; Oral; Water; dose end: 103 week; group: systemic; systemic / pathology microscopic / liver / neoplastic nodule + systemic / pathology microscopic / liver / cellular alteration + systemic / ….
The subject of data set [8] is rat. To be noted: Subchronic oral toxicity in rodents, fischer, Water, dose end: 13 week, group: systemic.
The subject of data set [9] is rat. The note with it: Sub-acute repeat dose toxicity, fischer, Oral, Water, dose end: 14 day, group: systemic.
Data set [10] has as its system mouse. The note with it: Subchronic oral toxicity in rodents, b6c3f1, Water, dose end: 13 week, group: systemic.
Data set [11] relates to mouse. To be noted: Carcinogenicity, b6c3f1, Oral, Water, dose end: 103 week, group: systemic.
Data set [12] relates to mouse. To be noted: Sub-acute repeat dose toxicity, b6c3f1, Oral, Water, dose end: 14 day, group: systemic.
Data set [13] deals with rat. The note with it: Prenatal developmental toxicity study; sprague dawley; Oral; Gavage/Intubation; dose end: 17 GD; group: maternal; systemic / in life observation / body weight / body weight + systemic / in life observation / food consumption / food consumption.
Data set [14] concerns rat. To be noted: Fertility (Segment I), sprague dawley, Oral, Gavage/Intubation, dose end: 7 GD, group: parental.
The subject of data set [15] is dog. The note with it: Chronic toxicity, beagle, Oral, Gavage/Intubation, dose end: 6 month, group: systemic.
In data set [16] the test system is rat. To be noted: Prenatal developmental toxicity study; sprague dawley; Oral; Gavage/Intubation; dose end: 17 GD; group: maternal; systemic / in life observation / body weight / body weight gain.
The subject of data set [17] is rabbit. To be noted: Prenatal developmental toxicity study, new zealand white, Oral, Gavage/Intubation, dose end: 18 GD.
The test system of data set [18] is dog. The note with it: Sub-acute repeat dose toxicity; beagle; Oral; Gavage/Intubation; dose end: 4 week; group: systemic; systemic / in life observation / body weight / body weight gain + systemic / in life observation / clinical signs / abnormal feces + ….
For data set [19], the system named is mouse. To be noted: Subchronic oral toxicity in rodents, cd1, Gavage/Intubation, dose end: 3 month, group: systemic.
Data set [20] relates to rat. The note with it: Sub-acute repeat dose toxicity, sprague dawley, Oral, Gavage/Intubation, dose end: 4 week, group: systemic.
Data set [21] relates to rat. The note with it: Chronic toxicity, sprague dawley, Oral, Gavage/Intubation, dose end: 6 month, group: systemic.
Data set [22] deals with rabbit. The note with it: Prenatal developmental toxicity study, new zealand white, Oral, Gavage/Intubation, dose end: 18 GD. The source holds these as a separate data set.
Setting [23] is: systemic / pathology microscopic / intestine small / pigmentation + systemic / pathology microscopic / stomach / acanthosis + systemic / ….
Where [24] appears, read: systemic / organ weight / kidney / absolute + systemic / organ weight / kidney / relative to body weight + systemic / organ weight / liver….
The mark [25] stands for this setting: systemic / in life observation / body weight / body weight + systemic / pathology microscopic / kidney / hyperplasia + systemic / pathology ….
[26] abbreviates: systemic / pathology microscopic / intestine small / pigmentation + systemic / pathology microscopic / kidney / hemosiderosis + systemic / ….
[27] abbreviates: systemic / in life observation / body weight / body weight + systemic / in life observation / water consumption / water consumption + ….
[28] abbreviates: systemic / in life observation / water consumption / water consumption.
The mark [29] stands for this setting: systemic / in life observation / body weight / body weight + systemic / in life observation / body weight / body weight gain + systemic / in….
The mark [30] stands for this setting: systemic / in life observation / body weight / body weight + systemic / pathology microscopic / liver / hyperplasia + systemic / pathology ….
The mark [31] stands for this setting: systemic / pathology microscopic / kidney / nephropathy.
The mark [32] stands for this setting: systemic / pathology microscopic / kidney / nephropathy + systemic / pathology microscopic / blood / lymphoma nos.
The mark [33] stands for this setting: systemic / in life observation / body weight / body weight gain + systemic / in life observation / water consumption / water consumption + ….
Where [34] appears, read: systemic / in life observation / body weight / body weight gain + systemic / in life observation / clinical signs / anogenital staining + ….
The mark [35] stands for this setting: systemic / in life observation / body weight / body weight gain + systemic / in life observation / clinical signs / red or crusty deposits ….
Where [36] appears, read: systemic / in life observation / clinical signs / emesis + systemic / in life observation / clinical signs / salivation.
Where [37] appears, read: group: developmental, developmental / developmental malformation / bone / incomplete ossification + systemic / in life observation / body weight / fetal weight.
The mark [38] stands for this setting: group: maternal, systemic / in life observation / body weight / body weight + systemic / in life observation / body weight / body weight gain + systemic / in….
The mark [39] stands for this setting: systemic / clinical chemistry / alanine aminotransferase (alt/sgpt) / alanine aminotransferase (alt/sgpt) + systemic / clinical chemistry / ….
Where [40] appears, read: systemic / in life observation / clinical signs / abnormal feces + systemic / in life observation / clinical signs / body surface staining….
Setting [41] is: systemic / clinical chemistry / triglycerides / triglycerides + systemic / in life observation / body weight / body weight gain + systemic….
[42] abbreviates: systemic / in life observation / body weight / body weight gain + systemic / in life observation / clinical signs / abnormal respiratory ….
Setting [43] is: systemic / in life observation / body weight / body weight gain + systemic / in life observation / clinical signs / [other] + systemic / in ….
Setting [44] is: group: developmental, systemic / in life observation / body weight / fetal weight.
Setting [45] is: group: maternal, systemic / in life observation / body weight / body weight gain + systemic / in life observation / food consumption / food consumption.

Usually LOAEL stands for the lowest tested level that showed an adverse finding. Broadly, the NOAEL is the highest tested level that showed no adverse finding. As to `Cl.Cl.Nc1ccc(O)c(N)c1` [2,4-Diaminophenol dihydrochloride], the LEL with mouse [1] was 19 mg/kg/day; with rat [2] (setting [23]), 12 mg/kg/day; in the data set on mouse [3] (setting [24]), 5 mg/kg/day; with rat [4] (setting [26]) it was 12.5 mg/kg/day. Further, the LOAEL in the data set on mouse [1] turned out to be 19 mg/kg/day; in the data set on rat [2] (systemic / organ weight / kidney / relative to body weight + systemic / pathology microscopic / kidney / necrosis), 25 mg/kg/day; with mouse [3] (systemic / pathology microscopic / kidney / regeneration), 38 mg/kg/day; in the data set with rat [4] (setting [25]), 25 mg/kg/day. For the same compound, the NEL in the data set with mouse [1] is less than 19 mg/kg/day; with rat [2] (setting [23]), less than 12 mg/kg/day; with mouse [3] (setting [24]) it was less than 5 mg/kg/day; in the data set on rat [4] (setting [26]) it was less than 12.5 mg/kg/day. For the same compound, the NOAEL was less than 19 mg/kg/day in the data set with mouse [1], 12 mg/kg/day in the data set on rat [2] (systemic / organ weight / kidney / relative to body weight + systemic / pathology microscopic / kidney / necrosis + systemic / in life …), 19 mg/kg/day in the data set with mouse [3] (setting [24]) and 12.5 mg/kg/day in the data set on rat [4] (setting [25]).

Take `CC(O)CSS(C)(=O)=O` (stereo unspecified) [2-Hydroxypropyl methanethiosulfonate]: in the data set with rat [5], the LEL amounted to 100 mg/kg/day, the LOAEL was 100 mg/kg/day, the NEL is less than 100 mg/kg/day and the NOAEL is less than 100 mg/kg/day. In the data set on rat [6], the LEL was 10 mg/kg/day, the LOAEL came out at 10 mg/kg/day, the NEL is less than 10 mg/kg/day and the NOAEL was less than 10 mg/kg/day.

Consider `Cl.Cl.Nc1ccc(Cc2ccc(N)cc2)cc1` [4,4'-Methylenedianiline dihydrochloride], for which the LEL with rat [7] was determined as 9 mg/kg/day; with rat [8] (setting [28]) it was 10 mg/kg/day; in the data set with rat [9] (setting [28]) it was 10 mg/kg/day; in the data set on mouse [10] (setting [28]), 3.75 mg/kg/day; in the data set on mouse [11] (setting [32]) it was 19 mg/kg/day; in the data set with mouse [12] (setting [33]) it was 120 mg/kg/day. The LOAEL turned out to be 9 mg/kg/day in the data set with rat [7]; 20 mg/kg/day with rat [8] (setting [27]); 40 mg/kg/day with rat [9] (setting [29]); 60 mg/kg/day in the data set with mouse [10] (setting [30]); 19 mg/kg/day in the data set with mouse [11] (setting [31]); 120 mg/kg/day in the data set with mouse [12] (systemic / in life observation / body weight / body weight gain + systemic / in life observation / water consumption / water consumption). Moreover, the NEL is less than 9 mg/kg/day with rat [7]; 5 mg/kg/day in the data set with rat [8] (setting [27]); less than 10 mg/kg/day in the data set on rat [9] (setting [28]); less than 3.75 mg/kg/day in the data set with mouse [10] (setting [28]); less than 19 mg/kg/day with mouse [11] (setting [32]); 60 mg/kg/day with mouse [12] (setting [33]). In addition, the NOAEL in the data set on rat [7] is less than 9 mg/kg/day; with rat [8] (setting [27]), 10 mg/kg/day; in the data set on rat [9] (setting [29]), 20 mg/kg/day; in the data set with mouse [10] (setting [30]) it was 30 mg/kg/day; with mouse [11] (setting [31]), less than 19 mg/kg/day; in the data set on mouse [12] (setting [33]) it was 60 mg/kg/day.

As for `CN1CCN(Cc2cc(-c3ccc4[nH]c(=O)oc4c3)co2)[C@@H](c2ccc(F)cc2)C1.Cl.O` [AVE8488], the LEL was determined as 10 mg/kg/day in the data set with rat [13]; 1 mg/kg/day with rat [14] (setting [35]); 1 mg/kg/day in the data set with dog [15] (setting [36]); 3.7 mg/kg/day in the data set on rat [16]; 150 mg/kg/day in the data set on rabbit [17] (setting [37]); 150 mg/kg/day with rabbit [17] (setting [38]). Further, the LEL in the data set on dog [18] was found to be 20 mg/kg/day; in the data set on mouse [19] (setting [40]), 50 mg/kg/day; in the data set on rat [20] (systemic / clinical chemistry / triglycerides / triglycerides + systemic / in life observation / body weight / body weight gain), 5 mg/kg/day; in the data set with rat [21] (setting [43]), 1 mg/kg/day; in the data set on rabbit [22] (setting [44]) it was 100 mg/kg/day; in the data set on rabbit [22] (setting [45]), 100 mg/kg/day. The LOAEL is 10 mg/kg/day in the data set with rat [13]; more than 150 mg/kg/day in the data set with rat [14] (setting [34]); 20 mg/kg/day with dog [15] (systemic / in life observation / clinical signs / emesis + systemic / in life observation / clinical signs / salivation + systemic / …); 25 mg/kg/day in the data set on rat [16]; 150 mg/kg/day in the data set on rabbit [17] (setting [37]); 150 mg/kg/day in the data set with rabbit [17] (setting [38]). For the same compound, the LOAEL with dog [18] was 20 mg/kg/day; in the data set on mouse [19] (setting [39]) it was more than 2000 mg/kg/day; with rat [20] (setting [42]) it was 50 mg/kg/day; with rat [21] (setting [41]) it was 7 mg/kg/day; with rabbit [22] (setting [44]), 100 mg/kg/day; with rabbit [22] (setting [45]), 100 mg/kg/day. In addition, the NEL in the data set with rat [13] is 1 mg/kg/day; with rat [14] (setting [35]), less than 1 mg/kg/day; in the data set with dog [15] (setting [36]), less than 1 mg/kg/day; in the data set on rat [16] it was 0.79 mg/kg/day; with rabbit [17] (setting [37]), 50 mg/kg/day; with rabbit [17] (setting [38]), 50 mg/kg/day. Further, the NEL in the data set on dog [18] is 5 mg/kg/day; in the data set with mouse [19] (setting [40]), less than 50 mg/kg/day; with rat [20] (setting [41]) it was 0.25 mg/kg/day; in the data set with rat [21] (setting [43]), less than 1 mg/kg/day; with rabbit [22] (setting [44]), 50 mg/kg/day; with rabbit [22] (setting [45]), 50 mg/kg/day. Further, the NOAEL in the data set on rat [13] was 1 mg/kg/day; with rat [14] (setting [34]), not below 150 mg/kg/day; in the data set with dog [15] (systemic / in life observation / clinical signs / emesis + systemic / clinical chemistry / albumin / albumin + systemic / clinical chemistry…) it was 5 mg/kg/day; with rat [16], 3.7 mg/kg/day; in the data set on rabbit [17] (setting [37]), 50 mg/kg/day; in the data set on rabbit [17] (setting [38]), 50 mg/kg/day. Besides, the NOAEL is 5 mg/kg/day in the data set on dog [18]; not below 2000 mg/kg/day with mouse [19] (setting [39]); 5 mg/kg/day in the data set with rat [20] (setting [42]); 1 mg/kg/day in the data set with rat [21] (setting [41]); 50 mg/kg/day with rabbit [22] (setting [44]); 50 mg/kg/day in the data set with rabbit [22] (setting [45]).

Source of the values: EPA's ToxRefDB 2.
